Where two headings read alike, the source gives them in different places.
Key:
[1] = target: BRDT(1,2) (Homo sapiens, UniProt Q58F21); test: BROMOscan ligand-binding assay
Description: BROMOscan is a binding assay based on the well-known KINOMEscan technology. This assay measures the binding of a DNA-tagged bromodomain to an immobilized BRD ligand. If an inhibitor is present, it will compete with the bromodomain binding to the immobilized ligand, resulting in reduction of a quantitative PCR (qPCR) signal in a dose-dependent manner.

[2] = target: T1, PRMT3 (Homo sapiens, UniProt O60678); test: Methyl transferase scintillation proximity assay; format: biochemical; settings: average of two measurements; for inhibition at 10 µM: read-out: MTases Inhibition (%)
T1 construct: purchased DiscoverX BROMOscan (bromodomains); SGC in-house methyltransferase panel
Procedure, shortened: (§1)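 Read-out is scintillation counts (CPM) from biotinylated substrate carrying a ^3H-methyl group, normalised to no-compound (100%) and no-enzyme (0%) wells. Reactions used ^3H-SAM and substrate close to each enzyme's apparent Km.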

[3] = target: T2, NSD3 (Homo sapiens, UniProt Q9BZ95); test: Methyl transferase scintillation proximity assay; format: biochemical; settings: average of two measurements; for inhibition at 10 µM: read-out: MTases Inhibition (%)
T2 construct: purchased DiscoverX BROMOscan (bromodomains); SGC in-house methyltransferase panel
T2 sequence (Q9BZ95 1-1437): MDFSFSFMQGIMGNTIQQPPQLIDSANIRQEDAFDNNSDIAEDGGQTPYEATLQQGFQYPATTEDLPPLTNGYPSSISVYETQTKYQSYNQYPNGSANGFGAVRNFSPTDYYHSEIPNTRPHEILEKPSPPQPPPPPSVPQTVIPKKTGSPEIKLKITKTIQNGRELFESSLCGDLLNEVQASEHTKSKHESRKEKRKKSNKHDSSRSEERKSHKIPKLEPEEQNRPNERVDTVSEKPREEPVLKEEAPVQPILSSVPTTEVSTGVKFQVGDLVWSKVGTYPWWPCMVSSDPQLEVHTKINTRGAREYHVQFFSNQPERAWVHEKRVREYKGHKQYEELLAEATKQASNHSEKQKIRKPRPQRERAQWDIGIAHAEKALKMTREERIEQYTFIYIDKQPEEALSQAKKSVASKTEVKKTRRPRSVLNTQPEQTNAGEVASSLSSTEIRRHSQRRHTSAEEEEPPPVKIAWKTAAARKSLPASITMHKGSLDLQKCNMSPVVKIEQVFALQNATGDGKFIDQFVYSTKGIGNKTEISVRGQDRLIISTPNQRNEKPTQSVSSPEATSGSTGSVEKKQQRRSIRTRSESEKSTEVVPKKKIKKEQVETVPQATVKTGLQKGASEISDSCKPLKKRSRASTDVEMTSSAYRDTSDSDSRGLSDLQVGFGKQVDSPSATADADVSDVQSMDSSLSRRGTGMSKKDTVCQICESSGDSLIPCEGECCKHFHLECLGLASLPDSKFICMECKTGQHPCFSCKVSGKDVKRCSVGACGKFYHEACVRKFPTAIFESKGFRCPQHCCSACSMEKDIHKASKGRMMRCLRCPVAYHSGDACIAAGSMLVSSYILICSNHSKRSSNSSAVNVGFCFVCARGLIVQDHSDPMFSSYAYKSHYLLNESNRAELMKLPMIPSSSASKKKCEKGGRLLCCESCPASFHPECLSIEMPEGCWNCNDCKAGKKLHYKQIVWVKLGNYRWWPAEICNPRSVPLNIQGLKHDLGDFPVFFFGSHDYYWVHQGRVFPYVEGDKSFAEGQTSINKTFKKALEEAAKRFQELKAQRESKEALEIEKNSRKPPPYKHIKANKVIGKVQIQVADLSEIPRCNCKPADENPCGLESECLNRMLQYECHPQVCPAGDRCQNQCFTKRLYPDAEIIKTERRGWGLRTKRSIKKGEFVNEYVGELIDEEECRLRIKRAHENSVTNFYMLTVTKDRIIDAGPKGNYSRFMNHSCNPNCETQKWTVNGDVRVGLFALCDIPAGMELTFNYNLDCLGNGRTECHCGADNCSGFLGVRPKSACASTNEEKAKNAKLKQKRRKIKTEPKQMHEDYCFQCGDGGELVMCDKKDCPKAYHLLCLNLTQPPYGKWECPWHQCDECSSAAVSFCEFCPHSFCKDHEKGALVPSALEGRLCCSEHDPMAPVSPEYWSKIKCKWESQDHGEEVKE
Procedure, shortened: as §1

[4] = target: T3, BCDIN3D (Homo sapiens, UniProt Q7Z5W3); test: Methyl transferase scintillation proximity assay; format: biochemical; settings: average of two measurements; for inhibition at 10 µM: read-out: MTases Inhibition (%)
T3 construct: purchased DiscoverX BROMOscan (bromodomains); SGC in-house methyltransferase panel
T3 sequence (Q7Z5W3 1-292): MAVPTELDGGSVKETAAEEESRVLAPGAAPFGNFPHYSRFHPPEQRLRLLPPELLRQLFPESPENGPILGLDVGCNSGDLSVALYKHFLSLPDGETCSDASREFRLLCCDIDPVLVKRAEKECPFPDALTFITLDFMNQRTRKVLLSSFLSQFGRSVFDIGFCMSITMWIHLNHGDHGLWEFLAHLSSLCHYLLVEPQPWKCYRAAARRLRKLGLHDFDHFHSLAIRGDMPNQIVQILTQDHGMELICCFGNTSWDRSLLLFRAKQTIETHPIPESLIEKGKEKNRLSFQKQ
Procedure, shortened: as §1

[5] = target: T4, SETD8 (Homo sapiens, UniProt Q9NQR1); test: Methyl transferase scintillation proximity assay; format: biochemical; settings: average of two measurements; for inhibition at 10 µM: read-out: MTases Inhibition (%)
T4 construct: purchased DiscoverX BROMOscan (bromodomains); SGC in-house methyltransferase panel
T4 sequence (Q9NQR1 1-393): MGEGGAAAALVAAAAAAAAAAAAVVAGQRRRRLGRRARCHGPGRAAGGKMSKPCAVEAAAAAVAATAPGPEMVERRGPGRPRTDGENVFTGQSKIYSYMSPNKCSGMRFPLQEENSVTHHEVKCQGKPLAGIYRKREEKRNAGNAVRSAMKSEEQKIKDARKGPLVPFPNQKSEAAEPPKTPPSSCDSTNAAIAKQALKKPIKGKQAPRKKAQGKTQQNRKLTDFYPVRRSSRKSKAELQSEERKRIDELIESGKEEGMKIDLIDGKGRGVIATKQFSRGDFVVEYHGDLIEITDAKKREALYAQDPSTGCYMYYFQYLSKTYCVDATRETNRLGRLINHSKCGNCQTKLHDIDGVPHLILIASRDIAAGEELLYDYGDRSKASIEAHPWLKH
Procedure, shortened: as §1

[6] = target: T5, SETD2 (Homo sapiens, UniProt Q9BYW2); test: Methyl transferase scintillation proximity assay; format: biochemical; settings: average of two measurements; for inhibition at 10 µM: read-out: MTases Inhibition (%)
T5 construct: purchased DiscoverX BROMOscan (bromodomains); SGC in-house methyltransferase panel
Procedure, shortened: as §1

[7] = target: T6, PRMT8 (Homo sapiens, UniProt Q9NR22); test: Methyl transferase scintillation proximity assay; format: biochemical; settings: average of two measurements; for inhibition at 10 µM: read-out: MTases Inhibition (%)
T6 construct: purchased DiscoverX BROMOscan (bromodomains); SGC in-house methyltransferase panel
Procedure, shortened: as §1

[8] = target: T7, DNMT3A/3L (Homo sapiens, UniProt Q9Y6K1); test: Methyl transferase scintillation proximity assay; format: biochemical; settings: average of two measurements; for inhibition at 10 µM: read-out: MTases Inhibition (%)
T7 construct: purchased DiscoverX BROMOscan (bromodomains); SGC in-house methyltransferase panel
Procedure, shortened: as §1

[9] = target: T8, SUV420H2 (Homo sapiens, UniProt Q86Y97); test: Methyl transferase scintillation proximity assay; format: biochemical; settings: average of two measurements; for inhibition at 10 µM: read-out: MTases Inhibition (%)
T8 construct: purchased DiscoverX BROMOscan (bromodomains); SGC in-house methyltransferase panel
Procedure, shortened: as §1

[10] = KD, BROMOscan Gene Symbol BRDT(1,2)

T8 sequence (Q86Y97 whole entry): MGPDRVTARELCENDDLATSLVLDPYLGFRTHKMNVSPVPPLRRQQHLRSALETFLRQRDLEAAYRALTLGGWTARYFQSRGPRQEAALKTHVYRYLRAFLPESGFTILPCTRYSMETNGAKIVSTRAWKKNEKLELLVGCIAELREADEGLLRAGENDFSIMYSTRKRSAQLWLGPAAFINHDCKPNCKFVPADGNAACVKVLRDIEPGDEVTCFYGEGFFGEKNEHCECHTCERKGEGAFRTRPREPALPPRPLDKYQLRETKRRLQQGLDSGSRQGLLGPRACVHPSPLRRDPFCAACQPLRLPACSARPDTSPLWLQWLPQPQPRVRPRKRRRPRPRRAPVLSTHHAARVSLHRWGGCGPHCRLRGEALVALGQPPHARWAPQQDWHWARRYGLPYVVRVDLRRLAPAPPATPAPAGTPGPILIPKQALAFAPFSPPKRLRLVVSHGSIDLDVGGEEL
T1 sequence (O60678 whole entry): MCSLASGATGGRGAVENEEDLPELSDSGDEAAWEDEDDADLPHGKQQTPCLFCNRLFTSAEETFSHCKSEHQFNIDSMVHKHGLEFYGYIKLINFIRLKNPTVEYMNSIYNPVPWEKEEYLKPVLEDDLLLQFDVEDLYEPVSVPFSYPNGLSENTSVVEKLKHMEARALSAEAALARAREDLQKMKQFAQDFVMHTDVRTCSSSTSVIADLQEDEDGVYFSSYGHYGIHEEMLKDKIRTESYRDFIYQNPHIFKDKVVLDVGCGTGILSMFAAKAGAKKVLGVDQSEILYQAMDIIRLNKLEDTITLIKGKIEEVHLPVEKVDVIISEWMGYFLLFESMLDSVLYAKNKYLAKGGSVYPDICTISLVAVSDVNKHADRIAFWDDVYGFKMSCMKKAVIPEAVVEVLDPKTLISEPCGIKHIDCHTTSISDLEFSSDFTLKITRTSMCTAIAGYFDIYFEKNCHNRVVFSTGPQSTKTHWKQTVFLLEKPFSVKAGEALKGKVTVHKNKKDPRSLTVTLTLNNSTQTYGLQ
T5 sequence (Q9BYW2 whole entry): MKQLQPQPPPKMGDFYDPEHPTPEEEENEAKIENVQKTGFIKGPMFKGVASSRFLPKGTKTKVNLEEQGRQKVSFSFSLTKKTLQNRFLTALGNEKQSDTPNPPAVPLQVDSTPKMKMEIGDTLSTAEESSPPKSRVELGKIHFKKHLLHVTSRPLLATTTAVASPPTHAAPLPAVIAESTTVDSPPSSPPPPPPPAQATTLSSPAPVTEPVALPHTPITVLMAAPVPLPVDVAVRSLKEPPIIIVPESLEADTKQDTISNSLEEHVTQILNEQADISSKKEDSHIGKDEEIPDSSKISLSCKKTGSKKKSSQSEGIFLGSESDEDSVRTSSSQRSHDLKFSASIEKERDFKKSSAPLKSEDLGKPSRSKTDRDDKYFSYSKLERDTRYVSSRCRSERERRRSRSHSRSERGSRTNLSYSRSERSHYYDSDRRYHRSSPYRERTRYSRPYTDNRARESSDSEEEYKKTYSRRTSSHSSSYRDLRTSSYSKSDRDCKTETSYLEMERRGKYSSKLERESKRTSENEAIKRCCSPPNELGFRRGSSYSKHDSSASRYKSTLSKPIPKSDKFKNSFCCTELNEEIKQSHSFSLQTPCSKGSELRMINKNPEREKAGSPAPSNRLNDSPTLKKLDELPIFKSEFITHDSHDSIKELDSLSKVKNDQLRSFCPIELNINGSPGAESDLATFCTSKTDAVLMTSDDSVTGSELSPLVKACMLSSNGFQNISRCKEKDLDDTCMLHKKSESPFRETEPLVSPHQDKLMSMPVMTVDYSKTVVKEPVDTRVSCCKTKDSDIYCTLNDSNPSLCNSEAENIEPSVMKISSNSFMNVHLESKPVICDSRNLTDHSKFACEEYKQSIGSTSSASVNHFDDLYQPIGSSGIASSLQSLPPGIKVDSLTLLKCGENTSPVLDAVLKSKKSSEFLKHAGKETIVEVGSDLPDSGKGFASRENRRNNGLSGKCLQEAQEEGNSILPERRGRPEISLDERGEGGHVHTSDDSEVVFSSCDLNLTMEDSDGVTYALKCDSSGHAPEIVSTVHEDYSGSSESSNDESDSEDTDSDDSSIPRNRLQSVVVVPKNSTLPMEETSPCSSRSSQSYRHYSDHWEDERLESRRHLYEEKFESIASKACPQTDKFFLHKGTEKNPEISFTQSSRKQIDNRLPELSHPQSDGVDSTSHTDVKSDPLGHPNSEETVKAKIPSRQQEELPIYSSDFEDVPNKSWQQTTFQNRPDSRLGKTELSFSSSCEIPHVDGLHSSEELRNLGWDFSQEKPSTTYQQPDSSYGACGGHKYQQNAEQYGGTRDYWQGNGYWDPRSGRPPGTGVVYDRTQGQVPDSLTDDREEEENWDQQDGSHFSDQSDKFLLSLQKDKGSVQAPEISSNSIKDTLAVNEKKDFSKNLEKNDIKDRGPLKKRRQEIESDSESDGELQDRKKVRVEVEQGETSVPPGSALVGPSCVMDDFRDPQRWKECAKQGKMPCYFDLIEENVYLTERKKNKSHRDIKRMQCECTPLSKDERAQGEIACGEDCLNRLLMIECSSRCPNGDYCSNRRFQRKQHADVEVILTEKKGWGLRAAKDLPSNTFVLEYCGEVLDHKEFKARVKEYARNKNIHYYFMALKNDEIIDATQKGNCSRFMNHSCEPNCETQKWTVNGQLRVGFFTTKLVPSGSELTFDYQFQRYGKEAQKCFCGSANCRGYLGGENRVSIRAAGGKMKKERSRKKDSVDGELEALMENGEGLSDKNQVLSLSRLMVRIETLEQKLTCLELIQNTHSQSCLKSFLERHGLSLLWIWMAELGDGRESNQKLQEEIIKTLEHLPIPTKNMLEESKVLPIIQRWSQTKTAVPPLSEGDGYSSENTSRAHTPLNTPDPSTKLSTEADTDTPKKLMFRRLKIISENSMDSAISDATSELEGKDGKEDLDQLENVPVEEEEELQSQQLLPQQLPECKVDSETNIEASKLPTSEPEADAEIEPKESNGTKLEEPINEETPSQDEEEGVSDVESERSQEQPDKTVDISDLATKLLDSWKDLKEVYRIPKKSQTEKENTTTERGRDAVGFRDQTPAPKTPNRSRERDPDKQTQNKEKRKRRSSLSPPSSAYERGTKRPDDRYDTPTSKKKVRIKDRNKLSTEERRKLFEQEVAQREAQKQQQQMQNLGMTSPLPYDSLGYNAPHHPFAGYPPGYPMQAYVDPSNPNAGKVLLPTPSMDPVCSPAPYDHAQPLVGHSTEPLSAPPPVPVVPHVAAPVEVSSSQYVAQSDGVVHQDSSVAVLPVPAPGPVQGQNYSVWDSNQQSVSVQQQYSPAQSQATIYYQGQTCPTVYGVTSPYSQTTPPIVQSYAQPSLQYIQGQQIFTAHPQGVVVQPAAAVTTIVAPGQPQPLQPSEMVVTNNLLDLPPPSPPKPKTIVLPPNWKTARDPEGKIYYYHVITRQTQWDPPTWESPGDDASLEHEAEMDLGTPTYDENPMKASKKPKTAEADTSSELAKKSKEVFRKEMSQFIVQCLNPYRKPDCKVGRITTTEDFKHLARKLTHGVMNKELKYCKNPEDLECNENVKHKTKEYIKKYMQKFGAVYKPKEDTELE
T7 sequence (Q9Y6K1 whole entry, looked up): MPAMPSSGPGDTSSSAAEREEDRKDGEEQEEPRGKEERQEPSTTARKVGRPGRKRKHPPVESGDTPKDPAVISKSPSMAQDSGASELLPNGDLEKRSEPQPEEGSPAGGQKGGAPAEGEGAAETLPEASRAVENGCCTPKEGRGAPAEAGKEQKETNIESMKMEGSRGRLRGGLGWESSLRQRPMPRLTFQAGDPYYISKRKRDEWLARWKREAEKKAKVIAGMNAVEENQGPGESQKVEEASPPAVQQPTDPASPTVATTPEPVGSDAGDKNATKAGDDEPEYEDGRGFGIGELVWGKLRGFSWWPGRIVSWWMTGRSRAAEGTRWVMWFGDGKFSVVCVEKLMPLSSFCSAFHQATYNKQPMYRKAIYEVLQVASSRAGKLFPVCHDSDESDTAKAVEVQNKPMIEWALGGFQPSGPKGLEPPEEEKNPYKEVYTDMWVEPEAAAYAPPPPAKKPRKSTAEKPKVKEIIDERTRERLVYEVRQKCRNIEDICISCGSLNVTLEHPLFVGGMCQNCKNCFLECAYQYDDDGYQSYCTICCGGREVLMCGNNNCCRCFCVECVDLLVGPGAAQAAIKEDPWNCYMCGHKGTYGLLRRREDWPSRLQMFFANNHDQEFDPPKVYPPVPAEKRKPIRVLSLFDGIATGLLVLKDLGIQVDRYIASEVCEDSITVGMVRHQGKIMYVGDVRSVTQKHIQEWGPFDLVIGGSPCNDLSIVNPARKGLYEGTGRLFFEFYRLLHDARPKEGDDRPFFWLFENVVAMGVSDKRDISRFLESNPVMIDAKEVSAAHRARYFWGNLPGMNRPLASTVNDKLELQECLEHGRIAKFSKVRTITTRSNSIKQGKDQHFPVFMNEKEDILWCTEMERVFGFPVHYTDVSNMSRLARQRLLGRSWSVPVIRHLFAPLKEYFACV
T7 sequence (Q9UJW3 whole entry partner): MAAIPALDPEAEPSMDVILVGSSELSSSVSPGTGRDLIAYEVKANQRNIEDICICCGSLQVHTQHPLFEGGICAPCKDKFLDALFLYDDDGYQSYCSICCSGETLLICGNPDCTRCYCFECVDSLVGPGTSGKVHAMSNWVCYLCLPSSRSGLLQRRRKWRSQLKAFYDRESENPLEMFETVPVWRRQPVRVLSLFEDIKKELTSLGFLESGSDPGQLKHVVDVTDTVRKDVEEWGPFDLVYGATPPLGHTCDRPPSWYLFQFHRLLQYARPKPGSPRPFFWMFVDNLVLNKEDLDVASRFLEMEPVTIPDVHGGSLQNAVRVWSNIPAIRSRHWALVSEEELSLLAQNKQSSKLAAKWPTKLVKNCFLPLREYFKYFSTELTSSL

Structure (SMILES)	inhibition at 10 µM [2] [%]	inhibition at 10 µM [3] [%]	inhibition at 10 µM [4] [%]	inhibition at 10 µM [5] [%]	inhibition at 10 µM [6] [%]	inhibition at 10 µM [7] [%]	inhibition at 10 µM [8] [%]	inhibition at 10 µM [9] [%]	further results
COc1cc(C#N)ccc1S(=O)(=O)Nc1ccc2c(c1)cc(C)c(=O)n2C [NI 57]	–	–	–	–	–	–	–	–	Kd ([1]; BRDT(1,2)): > 50000 nM
CCCOc1ccn2c(C(C)=O)cc(-c3ccccc3S(C)(=O)=O)c2c1 [GSK2801]	–	–	–	–	–	–	–	–	Kd [1, 10]: 52000 nM
O=C(O)c1ccccc1O [Salicylic Acid]	–	–	–	–	–	–	–	–	Kd ([1]; KD, BRDT(1,2)): 6.1e+06 nM
Cc1cc(=O)n(C)c2cc(N3C(=O)CC[C@H](NS(=O)(=O)CC(C)C)[C@H]3c3ccc(Cl)cc3)ccc12 [LP-99]	–	–	–	–	–	–	–	–	Kd ([1]; BROMOscan, BRDT(1,2)): 21000 nM
COc1ccc(CCc2nc3cc(-c4c(C)noc4C)ccc3n2C[C@H](C)N2CCOCC2)cc1Cl [SGC-CBP30]	–	–	–	–	–	–	–	–	Kd ([1]; KD, BROMOscan, BRDT(1,2)): 3100 nM
COc1cc2c(cc1NS(=O)(=O)c1ccc(Br)cc1C)n(C)c(=O)n2C [OF-1]	–	–	–	–	–	–	–	–	Kd ([1]; BRDT(1,2)): 11000 nM
Cc1nnc2c3ccccc3c(N[C@@H](C)[C@H](c3ccccc3)N(C)C)nn12 [L-Moses]	0	5	9	-8	11	5	2	6	–
CCCS(=O)(=O)c1nc(NC2CC2)cc(-c2ccc3c(ccn3C3CC(C)(C)NC(C)(C)C3)c2)n1 [NVS-CECR2-1]	–	–	–	–	–	–	–	–	Kd [1]: 14000 nM
CCC(=O)N1CCOc2c(cc(-c3ccc(OC)c(OC)c3)cc2OCC2CCCN(C)C2)C1 (stereo not drawn) [I-CBP112]	–	–	–	–	–	–	–	–	Kd [1, 10]: 9600 nM
O=C(C=CN1CC2CC1CN2c1ccccn1)c1ccccc1O (stereo not drawn) [PFI-3]	–	–	–	–	–	–	–	–	Kd ([1]; KD (BROMOscan), sheet prints no unit (nM)): > 30000 nM; Kd ([1]; KD, BRDT(1,2)): > 100000 nM
COc1ccccc1C(=O)Nc1cc2c(cc1N1CCNC[C@H]1C)n(C)c(=O)n2C [GSK6853]	–	–	–	–	–	–	–	–	MTases Inhibition (%) ([2]; 10µM): 1%; MTases Inhibition (%) ([3]; 10µM): 7%; MTases Inhibition (%) ([4]; 10µM): 5%; MTases Inhibition (%) ([5]; 10µM): -6%; MTases Inhibition (%) ([6]; 10µM): 1%; MTases Inhibition (%) ([7]; 10µM): 3%; MTases Inhibition (%) ([8]; 10µM): 13%; MTases Inhibition (%) ([9]; 10µM): -2%
O=C(C=CN1[C@H]2CC[C@@H]1c1ncnc(NC3CC3)c1C2)c1ccccc1O [PFI-3 D1]	–	–	–	–	–	–	–	–	Kd ([1]; BROMOscan, BRDT(1,2)): > 30000 nM

Second part, led by results:

inhibition at 10 µM [2] [%]	inhibition at 10 µM [3] [%]	inhibition at 10 µM [4] [%]	inhibition at 10 µM [5] [%]	inhibition at 10 µM [6] [%]	inhibition at 10 µM [7] [%]	inhibition at 10 µM [8] [%]	inhibition at 10 µM [9] [%]	Structure (SMILES)	further results
1	3	17	0	-4	9	6	-1	Cc1c(NC(=O)c2cc(C(N)=O)nc3cc(F)ccc23)c(C(F)(F)F)nn1Cc1ccc(C#N)cc1 [BAY-876]	–
5	15	4	-6	19	3	8	0	CN(C)CCCOc1ccc(-c2cc(NCCCn3cccn3)nc(S(C)(=O)=O)n2)cc1 [TP-238]	–
3	13	7	-7	7	5	8	0	CO[C@H]1CNC[C@@H](OCC2CCC(F)(F)CC2)[C@@H]1Nc1ncc(-c2cncc(C)c2)c2cc(C)c(=O)[nH]c12 [GSK8814]	–
3	14	28	2	7	4	21	0	COc1cc(Cl)c(C(=O)N[C@@H](CN[C@H]2CC[C@@H](N)CC2)Cc2ccc(C#N)cc2)cc1-c1ccc(CN[C@H](C)c2ccc(C)cc2)o1 [BAY-850]	–
5	-2	16	-3	0	3	-1	-3	Cc1c(NC(=O)c2cc(C(N)=O)nc3cc(F)ccc23)c(C(F)(F)F)nn1Cc1ccc(C(C)(C)C)cc1 [BAY-588]	–
2	10	14	10	-1	15	3	-1	CN1C[C@H](Nc2cnn(C)c(=O)c2Br)C[C@H](c2ccccc2)C1 [GSK4027]	–

— PMC6478789, “A chemical toolbox for the study of bromodomains and epigenetic signaling” (Nature Communications, 2019)
